Data from PubChem BioAssay (NCI).
Several values for one entry are separate records, joined by “and”; a condition that tells them apart may be missing. Equal values may be shown once.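 The compound was tested at five concentrations on cells cultured in 96-well plates, with a 48-hour exposure period. GI50: concentration for 50% inhibition of growth. At the TGI there is no net growth.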

Test system: NCI/ADR-RES ovarian
Experiment: DTP human tumour cell line panel, 48 h

Structure (SMILES)	GI50	TGI
C#CCOc1cccc(-c2ncc3cc(NC(=O)CCl)ccc3n2)c1	3.07 µM	> 100 µM
COc1ccc(OC)c2c1[nH]c(=O)c1c3ccccc3cn21	1.5 µM	3.38 µM
COc1cccc2c1C(=O)c1c(O)c3c(c(O)c1C2=O)C[C@@](O)(C(=O)CO)C[C@@H]3OC1CC(N)CC(C)O1 (stereo partly drawn)	2.75 µM	28.2 µM
O=CCC1CCCCC1		> 100 µM
Nc1ccc([N+](=O)[O-])cc1N=C/C=C/c1ccccc1	7.84 µM	> 100 µM
Cc1cc(Nc2ccc(NC(=O)c3ccc(Nc4ccnc5ccccc45)cc3)cc2)nc(N)n1	> 100 µM	> 100 µM
COC(=O)C1c2cc3c(cc2C(OC2OC(C)C(OC)C(C)(OC)C2OC)CC1(C)O)C(=O)c1c(O)cc2c(c1C3=O)OC1OC2(C)C(O)C([N+](C)(C)[O-])C1O (stereo not drawn)		> 64.3 µM
CNCc1ccccc1-c1csc([C@@H](C)Nc2nc(C)nc3cc(OC)c(OC)cc23)c1	2.01 µM	4.68 µM
CCOC(=O)C(C#N)C1=CC(=O)C(=O)c2ccc(OC)cc21 (stereo not drawn)		51.3 µM
COc1cc(OCc2cccc(-c3ccc(C(O)c4nccs4)cc3)c2C)cc(OC)c1C=O (stereo not drawn)	2.84 µM	14.7 µM
O=C(O)COc1ccc2c(=O)c3sc4c(=O)c5ccccc5c(=O)c4c3c(=O)c2c1	29.9 µM	> 100 µM
CC[As](CC)SC[C@H](C)C(=O)N1CCC[C@H]1C(=O)O	0.0152 µM	0.13 µM
NC(N)=N/N=C/c1c(-c2ccsc2)nc2sccn12	16.9 µM	32.7 µM
Oc1ccc(Nc2ncnc3c2sc2ncccc23)cc1	0.0286 µM	> 35.2 µM
CC(=O)OC1COC(Oc2c(C)c3c4c(c2O)[C@@H](C)CC[C@@H]4[C@@H](C)C[C@H]3C=C(C)C)C(O)C1OC(C)=O (stereo partly drawn)	9.2 µM	23.7 µM
Cc1ccc(SC2c3ccc(C)cc3Oc3nc(N)c(C#N)c(N)c32)cc1 (stereo not drawn)	2.79 µM	9.73 µM

Test system: NCI-H460 lung
Experiment: DTP human tumour cell line panel, 48 h

Structure (SMILES)	GI50	TGI
Clc1ccc2c(c1)[nH]c1c2nc2ccccn21	44.3 µM and 17.4 µM	> 100 µM and 35.9 µM
CCOC(=O)c1cnc2c(ccc3[nH]n(C)nc32)c1=O		> 100 µM
NC(=S)N/N=C(\CC1OC(=O)c2ccccc21)c1ccc(Cl)cc1 (stereo not drawn)		> 100 µM
COc1ccc2occ(CCC(=O)O)c2c1		> 100 µM
COC(=O)C(C(=O)c1ccccc1)C(C(=O)C(=O)Nc1ccc(OC)cc1OC)C(=O)C(=O)c1ccc(C)cc1 (stereo not drawn)		> 100 µM
CC1(C)COC(C2(C)C(=O)C=C(c3ccccc3)c3ccccc32)=N1 (stereo not drawn)		> 100 µM
O=C(Nc1ccn(CCO)c(=O)n1)c1ccccc1		> 100 µM
O=C1CCC2(c3ccc(Cl)cc3)Nc3ncccc3N12 (stereo not drawn)		> 100 µM
COc1ccc(Sc2[nH]c(C(C)=O)c3ccccc23)cc1	7.41 µM	20.6 µM
C#CCOc1cccc(-c2ncc3cc(NC(=O)CCl)ccc3n2)c1	2.16 µM	4.83 µM
CC12C/C(=C\c3ccccc3)C(=O)C3C1CCCC32		> 100 µM
OC(CC1SCCCS1)c1ccccc1 (stereo not drawn)		> 100 µM
CCCCOC(=O)CNC(=O)OC/C=C/C#CC#C/C=C/COC(=O)NCC(=O)OCCCC	> 100 µM	> 100 µM
COc1ccc(OC)c2c1[nH]c(=O)c1c3ccccc3cn21	1.1 µM	2.73 µM
COc1cccc2c1C(=O)c1c(O)c3c(c(O)c1C2=O)C[C@@](O)(C(=O)CO)C[C@@H]3OC1CC(N)CC(C)O1 (stereo partly drawn)		0.421 µM and 0.192 µM
O=C1c2ccccc2C(=O)N1CCn1ccc(NC(c2ccccc2)(c2ccccc2)c2ccccc2)nc1=O		65.5 µM
CC(C)(C)NNC(=O)CCn1[nH]c(=O)c(Cl)c(Cl)c1=O		> 100 µM
O=CCC1CCCCC1		> 100 µM
CCC12CCCN(Cc3ccccc3)C1c1c(n(C)c3ccccc13)CC2 (stereo not drawn)		> 253 µM
